This note sets out measurements from patent US8362012B2, “Benzoxazine benzimidazole derivative, a pharmaceutical composition comprising the same, and a use thereof” (Daewoong Pharmaceutical Co., Ltd., priority 2008, dated 2013).

Molecules are shown by their SMILES.

In the assay the target is T1, human vanilloid-1 (hVR-1) in hVR-1-HEK293 cell line (Homo sapiens, UniProt Q8NER1).
T1 construct: expressed in transfected cells; host or cells: HEK293 Tet-on strain, doxycycline-induced
T1 sequence (Q8NER1 whole entry): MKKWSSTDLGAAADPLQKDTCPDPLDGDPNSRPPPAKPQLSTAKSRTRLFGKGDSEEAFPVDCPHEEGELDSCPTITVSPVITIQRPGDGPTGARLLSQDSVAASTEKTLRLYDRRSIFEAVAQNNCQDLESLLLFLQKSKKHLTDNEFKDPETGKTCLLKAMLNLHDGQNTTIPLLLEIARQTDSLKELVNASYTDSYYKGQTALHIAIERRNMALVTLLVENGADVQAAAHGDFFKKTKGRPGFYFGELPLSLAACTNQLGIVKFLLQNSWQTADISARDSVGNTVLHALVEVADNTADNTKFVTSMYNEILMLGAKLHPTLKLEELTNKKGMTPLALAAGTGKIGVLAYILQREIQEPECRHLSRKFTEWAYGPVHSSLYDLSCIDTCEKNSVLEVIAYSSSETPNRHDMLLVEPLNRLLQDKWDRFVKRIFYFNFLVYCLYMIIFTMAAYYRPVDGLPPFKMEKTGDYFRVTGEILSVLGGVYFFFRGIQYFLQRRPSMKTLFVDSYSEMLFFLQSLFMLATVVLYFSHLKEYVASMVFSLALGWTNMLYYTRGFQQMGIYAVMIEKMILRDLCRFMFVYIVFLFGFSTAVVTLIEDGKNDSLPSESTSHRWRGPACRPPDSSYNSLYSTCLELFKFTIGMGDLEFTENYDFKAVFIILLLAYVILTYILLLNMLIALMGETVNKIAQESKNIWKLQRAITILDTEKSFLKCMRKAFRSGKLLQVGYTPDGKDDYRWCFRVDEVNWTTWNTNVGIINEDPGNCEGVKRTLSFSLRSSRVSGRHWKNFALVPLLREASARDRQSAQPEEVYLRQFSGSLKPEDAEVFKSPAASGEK
Briefly: Inhibitory effect on calcium influx via a vanilloid receptor (capsaicin-stimulated, Fluo-3/AM). In kind it is cell-based. The conditions noted are these: hVR-1-HEK293 cells, 1 μM of capsaicin, compounds 0.015˜2000 nM; read-out: I.A. (inhibitory activity), IC50 on intracellular calcium influx. As for the experimental part: The cell line can modulate the expression of VR-1, depending on whether doxycycline, a derivative of tetracycline, is present or not. […] Specifically, hVR-1-HEK293 cells were cultured in a T75 flask to about 80% confluency, separated from the flask by treating with trypsin solution, and then collected by centrifugation. The cells were suspended in a medium containing 1 μg/mL of doxycycline, and the resulting suspension was diluted to a concentration of 2˜4×10^5 cells/mL […], of the cell suspension was placed in each well of a 96-well black plate. The cells were cultured in 5% CO2 incubator at 37° C. for 2 days, and used for the following procedure. […] The cells prepared in 1) above were cultured at 37° C. for 90 min in a solution containing Fluo-3/AM, a fluorescent dye, as a calcium indicator so that the fluorescent dye was permeated into the cells. […] In order to stimulate calcium influx through a vanilloid receptor, the cells were treated with 1 μM of capsaicin. […] The obtained data were input to the Hill equation represented by the following formula I and the values were analyzed: Intracellular calcium influx= [(fluorescent intensity of experimental group−fluorescent intensity of background)/(fluorescent intensity of positive control−fluorescent intensity of background)]*100 [Formula I] The inhibitory activities were evaluated from the obtained intracellular calcium influx values according to the following criteria.
Background: A change in cytosolic calcium serves as a functional read-out for many receptors and channels.
For the molecule `CCc1ccc(N2c3cccc(-c4nc5ccc(C(F)(F)F)cc5[nH]4)c3OC[C@@H]2CO)nc1` [Example 79, [(S)-4-(5-ethyl-pyridin-2-yl)-8-(6-trifluoromethyl-1H-benzimidazol-2-yl)-3,4-dihydro-2H-benzo[1,4]oxazin-3-yl]-methanol], the IC50 (as a rule, the concentration that inhibits the measured activity by half) lay within 20 to 100 nM. Take `CCc1ccc(N2c3cccc(-c4nc5ccc(C(C)(C)C)cc5[nH]4)c3OC[C@@H]2CO)nc1` [Example 78, [(S)-8-(6-tert-butyl-1H-benzimidazol-2-yl)-4-(5-ethyl-pyridin-2-yl)-3,4-dihydro-2H-benzo[1,4]oxazin-3-yl]-methanol]: the IC50 is 20 to 100 nM. For `C=Cc1ccc(N2c3cccc(-c4nc5c(F)cc(Br)cc5[nH]4)c3OC[C@@H]2CO)nc1` [Example 62, [(S)-8-(6-bromo-4-fluoro-1H-benzimidazol-2-yl)-4-(5-vinyl-pyridin-2-yl)-3,4-dihydro-2H-benzo[1,4]oxazin-3-yl]-methanol], the IC50 was < 20 nM.

As to `Clc1cccnc1N1CCOc2c(-c3nc4ccc(Br)cc4[nH]3)cccc21` [Example 21, 8-(6-bromo-1H-benzimidazol-2-yl)-4-(3-chloro-pyridin-2-yl)-3,4-dihydro-2H-benzo[1,4]oxazine], the IC50 lay in the range of 101 to 500 nM. As to `COC[C@H]1COc2c(-c3nc4ccc(OC)cc4[nH]3)cccc2N1c1ccc(C)cn1` [Example 106, (S)-8-(6-methoxy-1H-benzo[d]imidazol-2-yl)-3-(methoxymethyl)-4-(5-methyl-pyridin-2-yl)-3,4-dihydro-2H-benzo[b][1,4]oxazine], the half-maximal inhibitory concentration (IC50) lay within 101 to 500 nM. For the molecule `FC(F)(F)c1ccc2nc(-c3cccc4c3OCCN4c3ncccc3Cl)[nH]c2c1` [Example 16, 4-(3-chloro-pyridin-2-yl)-8-(6-trifluoromethyl-1H-benzimidazol-2-yl)-3,4-dihydro-2H-benzo[1,4]oxazine], the IC50 was 101 to 500 nM. `CC(C)(C)c1ccc2nc(-c3cccc4c3OCCN4c3ccc(C(F)(F)F)cn3)[nH]c2c1` [Example 8, 8-(6-tert-butyl-1H-benzimidazol-2-yl)-4-(5-trifluoromethyl-pyridin-2-yl)-3,4-dihydro-2H-benzo[1,4]oxazine]: the concentration for half-maximal inhibition (IC50) was 101 to 500 nM. Consider `C=Cc1ccc(N2c3cccc(-c4nc5ccc(C)cc5[nH]4)c3OC[C@@H]2CO)nc1` [Example 74, (S)-(8-(6-methyl-1H-benzo[d]imidazol-2-yl)-4-(5-vinyl-pyridin-2-yl)-3,4-dihydro-2H-benzo[b][1,4]oxazin-3-yl)methanol], for which the half-maximal inhibitory concentration (IC50) fell in the range of 101 to 500 nM.

In the case of `Cc1ccc(N2CCOc3c(-c4nc5c(Cl)cc(C(F)(F)F)cc5[nH]4)cccc32)nc1` [Example 29, 8-(4-chloro-6-trifluoromethyl-1H-benzimidazol-2-yl)-4-(5-methyl-pyridin-2-yl)-3,4-dihydro-2H-benzo[1,4]oxazine], the IC50 was in the range of 101 to 500 nM. For `CC(C)(C)c1ccc2[nH]c(-c3cccc4c3OCCN4c3ccc(Cl)cn3)nc2c1` [Example 14, 8-(5-tert-butyl-1H-benzimidazol-2-yl)-4-(5-chloro-pyridin-2-yl)-3,4-dihydro-2H-benzo[1,4]oxazine] the value was 20 to 100 nM.

In the case of `CC(C)(C)c1ccc2nc(-c3cccc4c3OCCN4c3ncccc3C(F)(F)F)[nH]c2c1` [Example 7, 8-(6-tert-butyl-1H-benzimidazol-2-yl)-4-(3-trifluoromethyl-pyridin-2-yl)-3,4-dihydro-2H-benzo[1,4]oxazine], the IC50 is > 1000 nM.

As to `C=Cc1ccc(N2c3cccc(-c4nc5ccccc5[nH]4)c3OC[C@@H]2CO)nc1` [Example 75, (S)-(8-(1H-benzo[d]imidazol-2-yl)-4-(5-vinyl-pyridin-2-yl)-3,4-dihydro-2H-benzo[b][1,4]oxazin-3-yl)methanol], the IC50 was 101 to 500 nM. In the case of `CC(C)(C)c1ccc2[nH]c(-c3cccc4c3OCCN4c3ccc(Br)cn3)nc2c1` [Example 13, 4-(5-bromo-pyridin-2-yl)-8-(5-tert-butyl-1H-benzimidazol-2-yl)-3,4-dihydro-2H-benzo[1,4]oxazine], the IC50 lay in the range of 20 to 100 nM.

Take `CC(C)(C)c1ccc2[nH]c(-c3cccc4c3OCCN4c3ccccn3)nc2c1` [Example 12, 8-(5-tert-butyl-1H-benzimidazol-2-yl)-4-pyridin-2-yl-3,4-dihydro-2H-benzo[1,4]oxazine]: the half-inhibitory concentration (IC50) is 101 to 500 nM. The result for `CC(C)(C)c1ccc2nc(-c3cccc4c3OCCN4c3ncccc3Cl)[nH]c2c1` [Example 6, 8-(6-tert-butyl-1H-benzimidazol-2-yl)-4-(3-chloro-pyridin-2-yl)-3,4-dihydro-2H-benzo[1,4]oxazine] reads 101 to 500 nM; that for `CC(C)(C)c1ccc2[nH]c(-c3cccc4c3OCCN4c3ccc(CO)cn3)nc2c1` [Example 15, 6-[8-(5-tert-butyl-1H-benzimidazol-2-yl)-2,3-dihydro-benzo[1,4]oxazin-4-yl]-pyridin-3-yl-methanol], 101 to 500 nM; that for `COC[C@H]1COc2c(-c3nc4c(C)cccc4[nH]3)cccc2N1c1ccc(C)cn1` [Example 108, (S)-3-(methoxymethyl)-8-(4-methyl-1H-benzo[d]imidazol-2-yl)-4-(5-methyl-pyridin-2-yl)-3,4-dihydro-2H-benzo[b][1,4]oxazine], 101 to 500 nM. For `C=Cc1ccc(N2c3cccc(-c4nc5ccc(C(F)(F)F)cc5[nH]4)c3OC[C@@H]2CO)nc1` [Example 58, [(S)-8-(6-trifluoromethyl-1H-benzimidazol-2-yl)-4-(5-vinyl-pyridin-2-yl)-3,4-dihydro-2H-benzo[1,4]oxazin-3-yl]-methanol], the IC50 fell in the range of 20 to 100 nM. For `Cc1ccc(N2c3cccc(-c4nc5c(F)cc(F)cc5[nH]4)c3OC[C@@H]2CO)nc1` [Example 55, [(S)-8-(4,6-difluoro-1H-benzo[d]imidazol-2-yl)-4-(5-methyl-pyridin-2-yl)-3,4-dihydro-2H-benzo[b][1,4]oxazin-3-yl]-methanol] the value was < 20 nM. For `CCc1ccc(N2c3cccc(-c4nc5cc(F)c(Cl)cc5[nH]4)c3OC[C@@H]2CO)nc1` [Example 84, [(S)-8-(6-chloro-5-fluoro-1H-benzimidazol-2-yl)-4-(5-ethyl-pyridin-2-yl)-3,4-dihydro-2H-benzo[1,4]oxazin-3-yl]-methanol] the value was 20 to 100 nM; for `Cc1ccc(N2CCOc3c(-c4nc5c(Br)cc(Br)cc5[nH]4)cccc32)nc1` [Example 32, 8-(4,6-dibromo-1H-benzimidazol-2-yl)-4-(5-methyl-pyridin-2-yl)-3,4-dihydro-2H-benzo[1,4]oxazine], 101 to 500 nM; for `C=Cc1ccc(N2c3cccc(-c4nc5c(C)cccc5[nH]4)c3OC[C@@H]2CO)nc1` [Example 76, (S)-(8-(4-methyl-1H-benzo[d]imidazol-2-yl)-4-(5-vinyl-pyridin-2-yl)-3,4-dihydro-2H-benzo[b][1,4]oxazin-3-yl)methanol], 20 to 100 nM. On to `C=Cc1ccc(N2c3cccc(-c4nc5c(Br)cc(C(F)(F)F)cc5[nH]4)c3OC[C@@H]2CO)nc1` [Example 64, [(S)-8-(4-bromo-6-trifluoromethyl-1H-benzimidazol-2-yl)-4-(5-vinyl-pyridin-2-yl)-3,4-dihydro-2H-benzo[1,4]oxazin-3-yl]-methanol], for which the IC50 is < 20 nM.

As to `COC[C@H]1COc2c(-c3nc4c(F)cc(F)cc4[nH]3)cccc2N1c1ccc(C)cn1` [Example 107, (S)-8-(4,6-difluoro-1H-benzo[d]imidazol-2-yl)-3-(methoxymethyl)-4-(5-methyl-pyridin-2-yl)-3,4-dihydro-2H-benzo[b][1,4]oxazine], the IC50 lay within 501 to 1000 nM.
